From patent US10717727B2, “Pyridinium compounds” (TORRENT PHARMACEUTICALS LIMITED, priority 2015, dated 2020)

Test system: Diabetic rats
Assay: In vivo study of effect on Nerve Conduction Velocity (NCV) in streptozotocin-induced diabetic rats
Details: 150 mg/kg, 8 weeks of treatment after 12 weeks of diabetes, streptozotocin diabetic male Wistar rats; compared with diabetic control rats treated with vehicle; ***p<0.001 by student's t-test (FIG. 1)
Protocol: Motor nerve conduction velocity evaluation was performed as a measure of AGE related diabetic complications.
In vivo study to evaluate effect of compound of present invention on Nerve Conduction Velocity
Healthy male Wistar rats, 170-250 g, 6-10 weeks old, were selected for the study. The animals were divided into two groups i.e. a non-diabetic control group (Normal Control Rats) and a diabetic group. Diabetes was induced (in the diabetic group of animals) by a single intraperitoneal injection of streptozotocin (60 mg/kg body weight) dissolved in citrate buffer (pH 4.5) (Biro et al; Brain Research Bulletin (1997) 44(3): 259-263). […]
150 mg/kg of Compound No 1 was administered to diabetic rats and diabetic control group was treated with vehicle for Compound 1. The rats were monitored throughout the experiment for water intake, food intake, changes in body weight, blood biochemistry parameters, urine parameters and mortality. […]
After 8 weeks of treatment NCV was estimated as described by Biro et al, (1997). […] Electromyograms (EMG's) from the plantar muscles were amplified and recorded using a data acquisition system (MacLab®, ADI instruments). […] Latency and the duration of the M responses were measured and the motor nerve conduction velocity (MNCV) was calculated. […]
Anode was placed in proximity to the cathode. Upon stimulation of the nerve, responses (EMG) were recorded from the plantar surface. […]

## CS(=O)(=O)NNC(=O)c1ccc[n+](CC(=O)c2cccs2)c1 [Compound 1]
  Nerve Conduction Velocity (NCV): improvement in NCV
